Molecules are shown by their SMILES. Where only a bound is given, the exact number is not on record here.

Chain of Beta-2 adrenergic receptor (Rattus norvegicus) (P10608 whole entry, looked up): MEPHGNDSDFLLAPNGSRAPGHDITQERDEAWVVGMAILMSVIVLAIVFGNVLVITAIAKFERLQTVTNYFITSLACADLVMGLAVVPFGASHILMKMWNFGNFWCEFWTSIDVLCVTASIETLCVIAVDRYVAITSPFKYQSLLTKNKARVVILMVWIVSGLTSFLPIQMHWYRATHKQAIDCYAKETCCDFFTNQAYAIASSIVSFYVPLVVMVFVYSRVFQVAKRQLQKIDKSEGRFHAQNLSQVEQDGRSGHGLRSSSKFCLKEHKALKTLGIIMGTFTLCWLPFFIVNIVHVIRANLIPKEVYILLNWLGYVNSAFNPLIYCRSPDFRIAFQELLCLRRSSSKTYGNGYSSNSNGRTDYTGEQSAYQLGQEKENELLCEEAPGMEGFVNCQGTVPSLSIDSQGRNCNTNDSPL

One assay has as its target Beta-2 adrenergic receptor (Rattus norvegicus) (UniProt P10608). Nature of the assay: Agonist activity at beta2-adrenergic receptor in rat L6 cells transfected with GLUT4 assessed as stimulation of skeletal muscle glucose uptake at 10 uM relative to isoprenaline. In kind it is functional, cell-based.
Conditions: not given
Take `CCC[C@H]1CCCC[C@@H]([C@H](O)c2cccc(F)c2)N1`: the Activity came out at 19%.

With `CCCCNC[C@@H](O)c1cccc(F)c1`, the Activity was less than 10%. Consider `CCC[C@H]1CCCC[C@H]([C@@H](O)c2cccc(F)c2)N1`, for which the Activity came to 15%. Take `CCC[C@H]1CCCC[C@@H]([C@@H](O)c2cccc(F)c2)N1`: the Activity amounted to 39%. Still for that read-out and setting: next, `CCC[C@@H]1CCCC[C@@H]([C@@H](O)c2cccc(F)c2)N1`: less than 10%; `CCC[C@H](C)NC[C@@H](O)c1cccc(O)c1`: 32%; `CCC[C@H]1CC[C@H]([C@@H](O)c2cccc(F)c2)N1`: 20%. For `CCC[C@@H]1C[C@@H]([C@H](O)c2cccc(F)c2)N1`, the Activity was determined as 31%.

As to `CCCCNC[C@@H](O)c1cccc(O)c1`, the Activity was less than 10%. The same measure, in the same setting: in the case of `CCC[C@H]1C[C@@H]([C@H](O)c2cccc(F)c2)N1` it was 19%; in that of `CCC[C@@H]1CCC[C@@H]([C@@H](O)c2cccc(F)c2)N1`, less than 10%. The same measure, in the same setting: in the case of `CCC[C@H]1C[C@H]([C@@H](O)c2cccc(F)c2)N1` it was 37%; in that of `CCC[C@@H]1CCCC[C@H]([C@H](O)c2cccc(F)c2)N1`, 39%. Still for that read-out and setting: next, `CCC[C@H]1CC[C@@H]([C@H](O)c2cccc(F)c2)N1`: 27%; `CCC[C@@H]1CCCC[C@@H]([C@H](O)c2cccc(F)c2)N1`: 12%.

The same assay, now with this note: filed as agonist.
`CCC[C@@H](C)NC[C@@H](O)c1cccc(O)c1`: the Activity came out at 53%. The same measure, in the same setting: next, `CCC[C@@H](C)NC[C@H](O)c1cccc(F)c1`: 90%; `CCC[C@H](C)NC[C@H](O)c1cccc(O)c1`: 79%. Regarding `CCC[C@@H]1CC[C@@H]([C@@H](O)c2cccc(F)c2)N1`, the Activity was 57%. Same read-out and setting: next, `CCC[C@@H]1CCC[C@H]([C@H](O)c2cccc(F)c2)N1`: 52%; `CCC[C@H]1CCC[C@H]([C@@H](O)c2cccc(F)c2)N1`: 56%. For the compound `CCC[C@@H]1CC[C@H]([C@H](O)c2cccc(F)c2)N1`, the Activity turned out to be 110%. Regarding `CCC[C@H]1CCC[C@@H]([C@H](O)c2cccc(F)c2)N1`, the Activity was found to be 67%. With `CCC[C@@H]1CCC[C@@H]([C@H](O)c2cccc(F)c2)N1`, the Activity was 42%.

On to `CCC[C@@H]1CCC[C@H]([C@@H](O)c2cccc(F)c2)N1`, for which the Activity is 50%. The same measure, in the same setting: next, `CCCCNC[C@H](O)c1cccc(O)c1`: 63%; `CCC[C@H]1CC[C@@H]([C@@H](O)c2cccc(F)c2)N1`: 64%; `CCC[C@@H]1C[C@@H]([C@@H](O)c2cccc(F)c2)N1`: 47%. For `CCC[C@@H]1CC[C@H]([C@@H](O)c2cccc(F)c2)N1`, the Activity is 41%.

For `CCC[C@@H]1CC[C@@H]([C@H](O)c2cccc(F)c2)N1`, the Activity worked out at 43%. With `CCC[C@H]1C[C@@H]([C@@H](O)c2cccc(F)c2)N1`, the Activity is 45%.

With `CCCCNC[C@H](O)c1cccc(F)c1`, the Activity amounted to 57%. Still for that read-out and setting: in the case of `CCC[C@@H]1CCCC[C@H]([C@@H](O)c2cccc(F)c2)N1` it was 52%.

As to `CCC[C@H]1CCC[C@H]([C@H](O)c2cccc(F)c2)N1`, the Activity worked out at 54%. The same measure, in the same setting: next, `CCC[C@H](C)NC[C@H](O)c1cccc(F)c1`: 75%; `CCC[C@@H](C)NC[C@H](O)c1cccc(O)c1`: 130%. On the same count and under the same terms, next, `CCC[C@H]1CC[C@H]([C@H](O)c2cccc(F)c2)N1`: 52%; `CCC[C@H]1CCCC[C@H]([C@H](O)c2cccc(F)c2)N1`: 47%; `CCC[C@@H]1C[C@H]([C@H](O)c2cccc(F)c2)N1`: 103%. Take `CCC[C@@H]1C[C@H]([C@@H](O)c2cccc(F)c2)N1`: the Activity was found to be 53%. On the same count and under the same terms, next, `CCC[C@H]1C[C@H]([C@H](O)c2cccc(F)c2)N1`: 72%; `CCC[C@H]1CCC[C@@H]([C@@H](O)c2cccc(F)c2)N1`: 48%.
